Source: US20240174618A1, “SUBSTITUTED (2-HETEROARYLOXYPHENYL)SULFONATES, SALTS THEREOF AND THEIR USE AS HERBICIDAL AGENTS” (Bayer Aktiengesellschaft, priority 2021, published 2024)

Experiments:
Type in all cases: in vivo
[1] = test system: Abutilon theophrasti (ABUTH); assay: E. Herbicidal post-emergence efficacy, ABUTH
How it was run: (§1)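 Visual scoring against untreated plants was done roughly 3 weeks after spraying (0% = no effect, 100% = plants dead). Spray application at 320 g/ha or lower, 600 l/ha water with 0.5% additive, was made onto green parts of one-leaf-stage greenhouse plants grown 2-3 weeks in sandy loam.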

[2] = test system: Digitaria sanguinalis (DIGSA); assay: A. Herbicidal pre-emergence efficacy, DIGSA; conditions: scored visually after about 3 weeks vs untreated controls
How it was run: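 Applied before emergence onto covering soil at rates of 1280 g/ha or less, using 600 L/ha spray water with 0.5% additive. Scoring: visual % efficacy after ~3 weeks, greenhouse.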

Stellaria media (STEME) = assay: B. Herbicidal post-emergence efficacy, STEME
How it was run: (§2)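 Weeds grown in sandy loam in greenhouse pots, sprayed at one-leaf stage (2–3 weeks after sowing) with WP or EC formulations as aqueous suspension/emulsion plus 0.5% additive at 600 L/ha water, rates up to 1280 g/ha. Visual efficacy rated about 3 weeks later versus untreated controls (0% = like control, 100% = dead).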

[3] = test system: Amaranthus retroflexus (AMARE); assay: B. Herbicidal post-emergence efficacy, AMARE
How it was run: as §2

[4] = test system: Pharbitis purpurea (PHBPU); assay: E. Herbicidal post-emergence efficacy, PHBPU
How it was run: as §1

[5] = test system: Alopecurus myosuroides (ALOMY); assay: C. Herbicidal pre-emergence efficacy, ALOMY; conditions: scored after about 3 weeks
How it was run: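 Pre-emergence test: formulated compounds sprayed as aqueous suspension or emulsion with 0.5% additive at 600 l/ha onto soil covering sown seeds, at rates corresponding to 320 g/ha or less. After about 3 weeks in greenhouse, efficacy scored visually as percent versus untreated controls (100% = plants dead).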

Veronica persica (VERPE) = assay: B. Herbicidal post-emergence efficacy, VERPE
How it was run: as §2

Viola tricolor (VIOTR) = assay: E. Herbicidal post-emergence efficacy, VIOTR
How it was run: as §1

Structure (SMILES) | Post-emergence efficacy against ABUTH in % ([1]; application rate 320 g/ha) [%] | Pre-emergence efficacy against DIGSA ([2]; 320 g/ha) [%] | Pre-emergence efficacy against DIGSA ([2]; 1280 g/ha) [%] | Post-emergence efficacy against STEME (Stellaria media (STEME); 80 g/ha) [%] | Post-emergence efficacy against STEME (Stellaria media (STEME); 320 g/ha) [%] | Post-emergence efficacy against STEME (Stellaria media (STEME); 1280 g/ha) [%] | Post-emergence efficacy against AMARE ([3]; 1280 g/ha) [%] | Post-emergence efficacy against PHBPU in % ([4]; application rate 80 g/ha) [%] | Post-emergence efficacy against PHBPU in % ([4]; application rate 320 g/ha) [%] | Pre-emergence efficacy against ALOMY ([5]; 320 g/ha) [%] | Post-emergence efficacy against VERPE (Veronica persica (VERPE); 80 g/ha) [%] | Post-emergence efficacy against VERPE (Veronica persica (VERPE); 320 g/ha) [%] | Post-emergence efficacy against VERPE (Veronica persica (VERPE); 1280 g/ha) [%] | Post-emergence efficacy against VIOTR in % (Viola tricolor (VIOTR); application rate 80 g/ha) [%] | Post-emergence efficacy against VIOTR in % (Viola tricolor (VIOTR); application rate 320 g/ha) [%] | Post-emergence efficacy against ABUTH in % ([1]; application rate 80 g/ha) [%] | Pre-emergence efficacy against DIGSA ([2]; 80 g/ha) [%] | Post-emergence efficacy against AMARE ([3]; 320 g/ha) [%] | Post-emergence efficacy against AMARE ([3]; 80 g/ha) [%] | Pre-emergence efficacy against ALOMY ([5]; 80 g/ha) [%]
O=S(=O)(CCC(F)(F)F)Oc1c(Cl)cccc1Oc1ncc(Cl)cn1 [Example I-38] | 100 | 100 | 100 | 90 | 90 | 90 | 90 | 100 | 100 | 100 | 90 | 90 | 90 | 100 | 100 |  |  |  |  | 
O=S(=O)(CCCC(F)(F)F)Oc1c(Cl)cccc1Oc1ncc(Cl)cn1 [Example I-39] | 100 | 100 | 100 | 90 | 90 | 90 | 90 | 90 | 100 | 100 | 90 | 90 | 90 | 100 | 100 | 80 | 100 | 90 |  | 
O=S(=O)(CCCC(F)(F)F)Oc1c(F)cccc1Oc1ncc(Br)cn1 [Example I-41] | 100 | 100 | 100 | 90 | 90 | 90 | 90 | 100 | 100 | 100 | 90 | 90 | 90 | 100 | 100 | 90 | 100 | 90 |  | 
O=S(=O)(CCC(F)(F)F)Oc1c(F)cccc1Oc1ncc(Cl)cn1 [Example I-48] | 100 | 100 | 100 | 90 | 90 | 90 | 90 | 100 | 100 | 100 |  | 90 | 90 | 100 | 100 | 90 | 100 | 90 | 90 | 100
O=S(=O)(CCCC(F)(F)F)Oc1c(F)cccc1Oc1ncc(Cl)cn1 [Example I-49] | 80 | 90 | 90 | 90 | 90 | 90 | 100 | 100 | 100 | 100 |  |  | 90 | 100 | 100 | 80 | 90 | 90 | 90 | 100
